Measured values reported in the supplement of paper PMC10307832.

Columns and labels:
Test in all cases: relative viability (nuclei count vs DMSO), 5 days (fraction); higher = more cells survive
AGI-6780 + Vorinostat = compound: O=C(Nc1cccc(C(F)(F)F)c1)Nc1cc(S(=O)(=O)NC2CC2)ccc1-c1ccsc1 [AGI-6780] + O=C(CCCCCCC(=O)Nc1ccccc1)NO [Vorinostat] (partner 1 µM)
Procedure, shortened: (§1)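 Nuclei were stained with Hoechst during a one-step fixation (final 0.05% Triton X-100, 1% formaldehyde, 1 ug/ml Hoechst) carried out 5 days after dosing, then counted on 4× images. The cells, lung cancer lines in 1536-well plates, had been dosed by pin tool the day after seeding with one drug alone or a fixed anchor-drug dose plus five library-drug doses (not always all listed) in √10 steps. Relative viability is the nuclei count in treated wells divided by that in vehicle wells, and each value is the median of duplicate plates.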

AGI-6780 + Navitoclax = compound: O=C(Nc1cccc(C(F)(F)F)c1)Nc1cc(S(=O)(=O)NC2CC2)ccc1-c1ccsc1 [AGI-6780] + CC1(C)CCC(c2ccc(Cl)cc2)=C(CN2CCN(c3ccc(C(=O)NS(=O)(=O)c4ccc(N[C@H](CCN5CCOCC5)CSc5ccccc5)c(S(=O)(=O)C(F)(F)F)c4)cc3)CC2)C1 [Navitoclax] (partner 0.5 µM)
Procedure, shortened: as §1

AGI-6780 + Alpelisib = compound: O=C(Nc1cccc(C(F)(F)F)c1)Nc1cc(S(=O)(=O)NC2CC2)ccc1-c1ccsc1 [AGI-6780] + Cc1nc(NC(=O)N2CCC[C@H]2C(N)=O)sc1-c1ccnc(C(C)(C)C(F)(F)F)c1 [Alpelisib] (partner 2 µM)
Procedure, shortened: as §1

AGI-6780 + Linsitinib = compound: O=C(Nc1cccc(C(F)(F)F)c1)Nc1cc(S(=O)(=O)NC2CC2)ccc1-c1ccsc1 [AGI-6780] + C[C@]1(O)C[C@@H](c2nc(-c3ccc4ccc(-c5ccccc5)nc4c3)c3c(N)nccn32)C1 [Linsitinib] (partner 1 µM)
Procedure, shortened: as §1

Row | Cell Line | relative viability (AGI-6780 + Vorinostat; first compound 0.08 µM) | relative viability (AGI-6780 + Vorinostat; first compound 0.253 µM) | relative viability (AGI-6780 + Vorinostat; first compound 0.8 µM) | relative viability (AGI-6780 + Vorinostat; first compound 2.53 µM) | relative viability (AGI-6780 + Vorinostat; first compound 8 µM) | relative viability (AGI-6780 + Navitoclax; first compound 0.08 µM) | relative viability (AGI-6780 + Navitoclax; first compound 0.253 µM) | relative viability (AGI-6780 + Navitoclax; first compound 0.8 µM) | relative viability (AGI-6780 + Navitoclax; first compound 2.53 µM) | relative viability (AGI-6780 + Navitoclax; first compound 8 µM) | relative viability (AGI-6780 + Alpelisib; first compound 0.08 µM) | relative viability (AGI-6780 + Alpelisib; first compound 0.253 µM) | relative viability (AGI-6780 + Alpelisib; first compound 0.8 µM) | relative viability (AGI-6780 + Alpelisib; first compound 2.53 µM) | relative viability (AGI-6780 + Alpelisib; first compound 8 µM) | relative viability (AGI-6780 + Linsitinib; first compound 0.08 µM) | relative viability (AGI-6780 + Linsitinib; first compound 0.253 µM) | relative viability (AGI-6780 + Linsitinib; first compound 0.8 µM) | relative viability (AGI-6780 + Linsitinib; first compound 2.53 µM) | relative viability (AGI-6780 + Linsitinib; first compound 8 µM)
1 | NCI-H596 | 0.519 | 0.533 | 0.602 | 0.502 | 0.642 | 0.91 | 1.02 | 0.927 | 0.774 | 0.929 | 0.6 | 0.501 | 0.455 | 0.427 | 0.516 | 1.24 | 1.09 | 0.961 | 0.931 | 1.12
2 | NCI-H1915 | 0.563 | 0.538 | 0.516 | 0.468 | 0.482 | 0.818 | 0.781 | 0.746 | 0.808 | 0.738 | 1.02 | 0.963 | 1.04 | 0.992 | 1.04 | 1.1 | 1.04 | 1.08 | 1.06 | 1.08
3 | NCI-H2009 | 0.754 | 0.712 | 0.693 | 0.707 | 0.628 | 1.2 | 1.12 | 1.19 | 1.16 | 1.16 | 1.21 | 1.12 | 1.17 | 1.13 | 1.25 | 1.18 | 1.21 | 1.12 | 1.25 | 1.15
4 | NCI-H1793 | 0.69 | 0.807 | 0.797 | 0.666 | 0.685 | 0.977 | 0.365 | 0.455 | 0.386 | 0.519 | 0.744 | 0.831 | 0.943 | 0.562 | 0.675 | 0.849 | 0.881 | 1.11 | 0.526 | 0.93
5 | NCI-H1395 | 0.714 | 0.726 | 0.826 | 0.618 | 0.701 | 1.25 | 1.17 | 1.2 | – | 1.23 | 1.14 | 1.15 | 1.23 | – | 0.969 | 1.14 | 1.16 | 1.12 | – | 1.14
6 | NCI-H1355 | 0.696 | 0.724 | 0.671 | 0.569 | 0.687 | 1.01 | 1.05 | 0.984 | 0.932 | 0.946 | 0.98 | 0.894 | 0.848 | 0.696 | 0.787 | 0.842 | 0.835 | 0.831 | 0.665 | 0.821
7 | HOP-62 | 0.61 | 0.833 | 0.655 | 0.617 | 0.813 | 0.974 | 1.01 | 1.13 | 1.11 | 1.19 | 0.923 | 0.985 | 0.986 | 1.14 | 1.27 | 0.945 | 1.3 | 1.08 | 1.04 | 0.826
8 | NCI-H23 | 0.61 | 0.74 | 0.735 | 0.614 | 0.508 | 0.844 | 0.951 | 0.835 | 0.555 | 0.802 | 0.971 | 0.745 | 0.811 | 0.473 | 0.791 | 0.622 | 0.582 | 0.693 | 0.39 | 0.672
9 | EPLC-272H | 0.351 | 0.401 | 0.318 | 0.554 | 0.289 | 1.17 | 1.37 | 1.02 | 0.918 | 1.08 | 0.88 | 0.972 | 0.927 | 0.785 | 0.864 | 1.28 | 1.43 | 1.21 | 1.03 | 1.11
10 | NCI-H2347 | 0.575 | 0.587 | 0.637 | 0.553 | 0.784 | 0.7 | 0.839 | 0.552 | 0.605 | 0.841 | 1 | 0.954 | 0.691 | 1 | 1.13 | 1.04 | 0.849 | 0.716 | 0.998 | 1.02
11 | SW 1573 | 0.792 | 0.75 | 0.999 | – | 0.972 | 1.21 | 1.07 | 1.14 | 0.973 | 1.14 | 0.876 | 0.843 | 0.76 | 0.649 | 0.554 | 0.818 | 0.911 | 0.868 | 0.652 | 0.831
12 | HCC-366 | 0.355 | 0.315 | 0.346 | 0.285 | 0.446 | 1.03 | 1.12 | 0.984 | 0.944 | 1.05 | 0.589 | 0.442 | 0.441 | 0.278 | 0.417 | 0.891 | 0.682 | 0.637 | 0.536 | 0.568
13 | NCI-H3122 | 1.03 | 0.805 | 0.843 | 0.832 | 1.02 | 1.03 | 1.03 | 1.02 | 1.07 | 0.977 | 0.876 | 0.859 | 0.892 | 0.633 | 0.822 | 1.03 | 0.982 | 1.01 | 1.08 | 1.04
